This passage reports IC50 results from patent publication US20210386721A1, “SUBSTITUTED PHENYLPROPENYL PYRIDINE DERIVATIVES, THEIR PREPARATION AND PHARMACEUTICAL APPLICATIONS” (SHANGHAI HAIYAN PHARMACEUTICAL TECHNOLOGY CO., LTD., priority 2019, published 2021).

Molecules are shown by their SMILES. Some results are limits rather than exact numbers.

The assay addresses T1, PD-1/PD-L1 (Homo sapiens, UniProt Q9NZQ7).
T1 construct: purchased Cisbio 63ADK000CPDPEB
Put plainly: PD-1/PD-L1 binding assay (HTRF, PPI-HTRF). To be noted: HTRF PD1/PD-L1 binding assay kit; 10 nM Tag1-PD-L1; 25° C. The method, then:
Assay 1 PD-1/PD-L1 Binding Assay
DMSO is from Sigma, Cat No: D5879; 384-well small volume plate (white) is from Greiner, Cat No: 784075; Anti-PD1 blocking antibody (IC50: 10 nM) is from Cisbio, Cat No: 64CUS000C-1a; Anti-PDL1 blocking antibody (IC50: 0.3 nM) is from Cisbio, Cat No: 64CUS000C-1b; HTRF PD1/PD-L1 binding assay kit is from Cisbio, Cat No: 63ADK000CPDPEB.
1. Prepare the compound to be tested at 2x concentration into 1× reaction buffer containing 4% DMSO;
2. Tag1-PD-L1 protein and Tag2-PD1 protein were prepared in 1× reaction buffer at concentrations of […] and 10 nM, respectively. The final reaction concentration of the experiment was 10 nM Tag1-PD-L1 and 2 nM […];
3. anti-Tag1-Eu3+ antibody is prepared in 1x concentration detection buffer at a ratio of 1:100;
4. anti-Tag2-XL665 antibody is prepared in 1x concentration detection buffer at a ratio of 1:25; Experimental steps
1. 5 μL of compounds to be tested (2×) was added;
2. 2.5 ul Tag1-PD-L1 protein and 2.5 ul Tag2-PD1 protein were added respectively, and the total reaction system is 10 ul, and reacted at 25° C. for 15 minutes;
3. 5 ul anti-Tag1-Eu3+ antibody and 5 ul anti-Tag2-XL665 antibody were added respectively, and reacted at 25° C. for 16 hours;
4. The fluorescence microplate reader HTRF reading program was used to read two readings at 665 nm and 620 nm, the ratio of the two wavelengths was used to judge the activity of the compound, and the IC50 of the compound to be tested is calculated by XLFIT5.0 (IDBS).

T1 sequence (Q9NZQ7 19-238 limits assumed): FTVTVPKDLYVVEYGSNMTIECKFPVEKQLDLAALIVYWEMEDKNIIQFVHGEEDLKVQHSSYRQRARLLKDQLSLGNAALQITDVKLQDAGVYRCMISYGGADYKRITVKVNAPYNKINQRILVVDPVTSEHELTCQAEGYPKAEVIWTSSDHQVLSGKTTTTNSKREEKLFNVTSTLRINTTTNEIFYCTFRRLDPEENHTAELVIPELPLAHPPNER

The molecule `COc1cc(/C=C/c2cccc(-c3cccc(-c4nc5cc(CN6CC[C@@H](C(=O)O)C6)cc(C#N)c5o4)c3C)c2F)c(C(F)(F)F)cc1CN1CC[C@@H](O)C1` [Z-25] had an IC50 of 1 nM. Under `COc1cc(/C=C/c2cccc(-c3cccc(-c4nc5cc(CN6CC[C@@H](C(=O)O)C6)cc(C#N)c5o4)c3F)c2C)c(C(F)(F)F)cc1CN1CC[C@@H](O)C1` [Z-28] stands 5 nM. The result for `COc1cc(/C=C/c2cccc(-c3cccc(-c4nc5cc(CN6CC[C@@H](C(=O)O)C6)ccc5o4)c3C)c2C)c(C(F)(F)F)cc1CN1CC[C@H](O)C1` [Z-31] reads 2 nM; that for `COc1cc(/C=C/c2cccc(-c3cccc(-c4nc5cc(CN6CC[C@H](C(=O)O)C6)ccc5o4)c3C)c2C)c(C(F)(F)F)cc1CN1CC[C@H](O)C1` [Z-32], 2 nM; that for `COc1cc(/C=C/c2cccc(-c3cccc(-c4nc5cc(CN6CC[C@@H](O)C6)cc(C#N)c5o4)c3C)c2C)c(C(F)(F)F)cc1CN1CC[C@@H](O)C1` [Z-37], 1 nM. `COc1cc(/C=C/c2cccc(-c3cccc(-c4nc5cc(CN6CCC[C@H]6C(=O)O)cc(C#N)c5o4)c3C)c2C)c(C(F)(F)F)cc1CN1CC[C@@H](O)C1` [Z-39] showed an IC50 of 1 nM. In turn, `Cc1cc(/C=C/c2nccc(-c3cccc(-c4nc5cc(CN6CC[C@@H](O)C6)cc(Cl)c5o4)c3C)c2C#N)c(Cl)cc1CN1CC[C@@H](C(=O)O)C1` [Z-46] yielded an IC50 of 1 nM. With `Cc1cc(/C=C/c2nccc(-c3cccc(-c4nc5cc(CN6CC[C@@H](O)C6)ccc5o4)c3C)c2C#N)c(Cl)cc1CN1CC[C@@H](C(=O)O)C1` [Z-47], the IC50 stood at 1 nM. As to `Cc1cc(/C=C/c2nccc(-c3cccc(-c4nc5cc(CN6CC[C@@H](C(=O)O)C6)cc(Cl)c5o4)c3C)c2C#N)c(C(F)(F)F)cc1CN1CC[C@@H](O)C1` [Z-48], the IC50 turned out to be 2 nM. The result for `COc1cc(/C=C/c2nccc(-c3cccc(-c4nc5cc(CN6CC[C@@H](C(=O)O)C6)cc(C#N)c5o4)c3C)c2C#N)c(C(F)(F)F)cc1CN1CC[C@@H](O)C1` [Z-50] reads 1 nM. Turning to `COc1cc(/C=C/c2cccc(-c3cccc(-c4nc(OC)c(CNC[C@@H]5CCC(=O)N5)cc4Cl)c3C)c2C)c(C(F)(F)F)cc1CN1CC[C@@H](C(=O)O)C1` [Z-55], the IC50 was found to be 3 nM. In turn, `Cc1cc(/C=C/c2nccc(-c3cccc(-c4nc5c(s4)CN(C(=O)CN(C)C)CC5)c3C)c2C#N)c(Cl)cc1CN1CC[C@@H](C(=O)O)C1` [Z-61, (R,E)-1-(5-chloro-4-(2-(3-cyano-4-(3-(5-(dimethylglycyl)-4,5,6,7-tetrahydrothiazolo [5,4-c]pyridin-2-yl)-2-methylphenyl)pyridin-2-yl)vinyl)-2-methylbenzyl)pyrrolidine-3-carboxylic Acid] came in with a 50% inhibitory concentration (IC50) of 2 nM.

`COc1cc(/C=C/c2cccc(-c3cccc(OC4CCc5cc(CN6CC[C@@H](O)C6)ccc54)c3Cl)c2C)c(C(F)(F)F)cc1CN1CC[C@@H](C(=O)O)C1` (stereo partly drawn) [Z-62, (3R)-1-(4-((E)-2-(2′-chloro-3′-((5-(((R)-3-hydroxypyrrolidin-1-yl)methyl)-2,3-dihydro-1H-inden-1-yl)oxy)-2-methyl-[1,1′-biphenyl]-3-yl)vinyl)-2-methoxy-5-(trifluoromethyl)benzyl)pyrrolidine-3-carboxylic Acid] displayed an IC50 of 3 nM.

`Cc1c(NC(=O)c2ccc(CNCCO)cn2)cccc1-c1ccnc(/C=C/c2ccc3c(c2)CCN(CCO)C3)c1C#N` [Z-63] yielded an IC50 of 32 nM. In turn, `Cc1c(NC(=O)c2ccc(CN3CC[C@@H](O)C3)cn2)cccc1-c1ccnc(/C=C/c2cc3nc(CN4CC[C@H](C(=O)O)C4)oc3cc2Cl)c1C#N` [Z-64] yielded an IC50 of 18 nM. `Cc1cc(/C=C/c2nccc(-c3cccc(NC(=O)c4ccc(CN5CC[C@@H](O)C5)cn4)c3C)c2C)c(Cl)cc1CN1CC[C@@H](C(=O)O)C1` [Z-65] displayed an IC50 below 1 nM. The molecule `Cc1cc(/C=C/c2nccc(-c3cccc(NC(=O)c4nc5c(n4C)CCN(C)C5)c3C)c2C#N)c(Cl)cc1CN1CCCC[C@H]1C(=O)O` [Z-66, (S,E)-1-(5-chloro-4-(2-(3-cyano-4-(3-(1,5-dimethyl-4,5,6,7-tetrahydro-1H-imidazo[4,5-c]pyridine-2-carboxamido)-2-methylphenyl)pyridin-2-yl)vinyl)-2-methylbenzyl)piperidine-2-carboxylic Acid] gave an IC50 of 2 nM. For the molecule `Cc1cc(/C=C/c2nccc(-c3cccc(NC(=O)c4ccc(CN5CC[C@@H](O)C5)cn4)c3C)c2C#N)c(Cl)cc1CN1CCC(C)(C(=O)O)C1` (stereo partly drawn) [Z-67, 1-(5-chloro-4-((E)-2-(3-cyano-4-(3-(5-(((R)-3-hydroxypyrrolidin-1-yl)methyl)picolinamido)-2-methylphenyl)pyridin-2-yl)vinyl)-2-methylbenzyl)-3-methylpyrrolidine-3-carboxylic Acid], the IC50 was 1 nM. In the case of `Cc1cc(/C=C/c2nccc(-c3cccc(NC(=O)c4ccc(CN5CC[C@@H](O)C5)cn4)c3C)c2C#N)c(Cl)cc1CN1CC[C@@H](C(=O)O)C1` [Z-68], the IC50 turned out to be 1 nM. The result for `Cc1c(NC(=O)c2ccc(CN3CC[C@@H](O)C3)cn2)cccc1-c1ccnc(/C=C/c2ccc(CN3CC[C@@H](C(=O)O)C3)cn2)c1C#N` [Z-69] reads 57 nM; that for `Cc1cc(/C=C/c2nccc(-c3cccc(NC(=O)c4ccc(CN5CCOCC5)cn4)c3C)c2C#N)c(Cl)cc1CN1CC[C@@H](C(=O)O)C1` [Z-70, (R,E)-1-(5-chloro-4-(2-(3-cyano-4-(2-methyl-3-(5-(morpholinomethyl)picolinamido)phenyl)pyridin-2-yl)vinyl)-2-methylbenzyl)pyrrolidine-3-carboxylic Acid], 3 nM. In turn, `Cc1cc(/C=C/c2nccc(-c3cccc(NC(=O)c4ccc(CN5CCOCC5)cn4)c3C)c2C#N)c(Cl)cc1CN1CCCC[C@H]1C(=O)O` [Z-71] yielded an IC50 of 5 nM. The result for `Cc1cc(CN2CCCC[C@H]2C(=O)O)c(C)cc1/C=C/c1nccc(-c2cccc(NC(=O)c3ccc(CN4CC[C@@H](O)C4)cn3)c2C)c1C#N` [Z-72] reads 2 nM; that for `Cc1cc(/C=C/c2nccc(-c3cccc(NC(=O)c4nc5c(n4C)CCN(C4CCOCC4)C5)c3C)c2C#N)c(Cl)cc1CN1CCCC[C@H]1C(=O)O` [Z-73, (S, E)-1-(5-chloro-4-(2-(3-cyano-4-(2-methyl-3-(l-methyl-5-(tetrahydro-2H-pyran-4-yl)-4,5,6,7-tetrahydro-1H-imidazo[4,5-c]pyridine-2-carboxamido)phenyl)pyridin-2-yl)vinyl)-2-methylbenzyl) piperidine-2-carboxylic Acid], 2 nM. Molecule `COc1cc(/C=C/c2nccc(-c3cccc(NC(=O)c4ccc(CN5CC[C@@H](O)C5)cn4)c3C)c2C#N)cc(OC)c1CN1CCCC[C@H]1C(=O)O` [Z-75] came in with an IC50 of 36 nM. The result for `Cc1cc(/C=C/c2nccc(-c3cccc(NC(=O)c4ccc(CN5CC[C@@H](O)C5)cn4)c3C)c2C#N)c(Cl)cc1CN1CC2(CC(C(=O)O)C2)C1` [Z-78, (R,E)-2-(5-chloro-4-(2-(3-cyano-4-(3-(5-((3-hydroxypyrrolidin-1-yl)methyl)picolinamido)-2-methylphenyl)pyridin-2-yl)vinyl)-2-methylbenzyl)-2-azaspiro[3.3]heptane-6-carboxylic Acid] reads 13 nM; that for `Cc1cc(/C=C/c2nccc(-c3cccc(NC(=O)c4ccc(CN5CC[C@@H](O)C5)cn4)c3C)c2C#N)c(C2CC2)cc1CN1CC[C@@H](C(=O)O)C1` [Z-79, (R)-1-(4-((E)-2-(3-cyano-4-(3-(5-(((R)-3-hydroxypyrrolidin-1-yl)methyl)picolinamido)-2-methylphenyl)pyridin-2-yl)vinyl)-5-cyclopropyl-2-methylbenzyl)pyrrolidine-3-carboxylic Acid], 1 nM.

As for `Cc1cc(/C=C/c2cccc(-c3cccc(NC(=O)c4ccc(CN5CC[C@@H](O)C5)cn4)c3C)c2C(F)(F)F)c(Cl)cc1CN1CC[C@@H](C(=O)O)C1` [Z-88], the IC50 was found to be 3 nM. As for `COc1cc(/C=C/c2cccc(-c3cccc(NC(=O)c4ccc(CN5CC[C@@H](O)C5)cn4)c3F)c2F)c(C(F)(F)F)cc1CN1CC[C@@H](C(=O)O)C1` [Z-100], the IC50 was 1 nM.

Take `COc1cc(/C=C/c2cccc(-c3cccc(NC(=O)c4ccc(CN5CC[C@@H](O)C5)cn4)c3C#N)c2Cl)c(C(F)(F)F)cc1CN1CC[C@@H](C(=O)O)C1` [Z-104]: the IC50 turned out to be 1 nM. Under `COc1cc(/C=C/c2cccc(-c3cccc(NC(=O)c4ccc(CN5CC[C@@H](O)C5)c(OC)n4)c3C)c2C)c(C(F)(F)F)cc1CN1CCC[C@H]1C(=O)O` [Z-116] stands 3 nM.

In turn, `COc1cc(/C=C/c2cccc(-c3cccc(NC(=O)c4ccc(CN5CC[C@@H](O)C5)cc4)c3C)c2C)c(C(F)(F)F)cc1CN1CC[C@@H](C(=O)O)C1` [Z-123] gave a half-maximal inhibitory concentration (IC50) of 1 nM.
